Laboratory results: US10556922B2, “Crystalline and amorphous forms of 17-alpha-hydroxyprogesterone caproate” (AMAG Pharmaceuticals, Inc., priority 2015, dated 2020)
Converted amounts (≈) assume the structure as drawn. Like-named read-outs stand apart in the source and are kept apart here.

What was measured:
[1] = Solution-mediated transformation studies (relative physical stability of Form A and Form B versus temperature); format: physicochemical
Description: Solution-mediated transformation studies were conducted to establish the relative physical stability of Form A and Form B versus temperature. Excess solid was suspended in a slurry using various solvents, including mixtures of benzyl benzoate and castor oil. After equilibration times of 1 day to two weeks, the excess solid was filtered and analyzed by powder x-ray diffraction to determine the crystalline form.

[2] = Solubility of crystalline HPC in organic solvents; format: physicochemical; details: organic solvent or mixture, 25° C.

relative physical stability ([1]; above 35° C.)	solubility ([2]; ethanol, read-out: solubility in ethanol) [mg/mL]	solubility ([2]; ethyl acetate, read-out: solubility in ethyl acetate) [mg/mL]	solubility ([2]; isopropanol, read-out: solubility in isopropanol) [mg/mL]	solubility ([2]; methanol, read-out: solubility in methanol) [mg/mL]	relative physical stability ([1]; below 27° C.)	relative physical stability ([1]; below room temperature, additional studies)	physical stability on storage ([1]; storage temperatures of room temperature (20-25° C.) or below (refrigeration))	Compound
more stable (less soluble)	~118 (≈ 275 mM)	~419 (≈ 978 mM)	~91 (≈ 212 mM)	~142 (≈ 331 mM)	–	–	–	CCCCCC(=O)O[C@]1(C(C)=O)CC[C@H]2[C@@H]3CCC4=CC(=O)CC[C@]4(C)[C@H]3CC[C@@]21C [Form A, 17-α-hydroxyprogesterone caproate]
–	–	–	–	–	more stable (less soluble)	likely to be more stable	physically stable polymorph	CCCCCC(=O)O[C@]1(C(C)=O)CC[C@H]2[C@@H]3CCC4=CC(=O)CC[C@]4(C)[C@H]3CC[C@@]21C [Form B, 17-α-hydroxyprogesterone caproate]
